Among the data in PubChem BioAssay (NCI) are GI50 and TGI values, retold here.

“And” between values parts separate entries of the source, which are not always exact repeats. Identical values can stand only once.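 Compound exposure: 48 hours, 5 concentrations, 96-well plates. The concentration for 50% growth inhibition is given as GI50. TGI denotes the concentration required for complete inhibition of growth.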

Some test systems named below: 786-0 renal; CAKI-1 renal; HOP-62 NSCLC; NCI/ADR-RES ovarian; OVCAR-5 ovarian; RPMI-8226 leukemia; SF-539 CNS; SK-MEL-5 melanoma; SK-OV-3 ovarian; SR leukemia.
Holding throughout (experiment): growth of human tumour cells (NCI), 48 h

As to `N#CC1c2ccccc2C=CN1C(=O)CCCl` (stereo not drawn), the GI50 is 14 µM in the test with 786-0 renal; 8.38 µM in the test with CAKI-1 renal; 19.8 µM in the test with HOP-62 NSCLC; 23 µM with NCI/ADR-RES ovarian; 10.3 µM in the test with OVCAR-5 ovarian; 2.66 µM in the test on RPMI-8226 leukemia. In addition, the GI50 in the test with SF-539 CNS was 8.06 µM; in the test with SK-MEL-5 melanoma, 16.6 µM; with SK-OV-3 ovarian, 17.2 µM; in the test on SR leukemia it was 3.07 µM. For the same compound, the TGI with 786-0 renal is 28 µM; in the test with CAKI-1 renal, 22.7 µM; with HOP-62 NSCLC, 40.6 µM; in the test with NCI/ADR-RES ovarian, 66.3 µM; with OVCAR-5 ovarian it was 25.9 µM; with RPMI-8226 leukemia it was 9.25 µM. For the same compound, the TGI in the test with SF-539 CNS stood at 22.3 µM; in the test with SK-MEL-5 melanoma, 30.6 µM; in the test with SK-OV-3 ovarian, 31.3 µM; with SR leukemia, 26.7 µM.
`Cn1nccc1Nc1nccc(-c2ccn([C@H](CO)c3ccc(Cl)c(F)c3)c(=O)c2)n1`: the GI50 with 786-0 renal was 31.4 µM; in the test with CAKI-1 renal, 34.3 µM; in the test on HOP-62 NSCLC, 37.8 µM; in the test on NCI/ADR-RES ovarian, greater than 100 µM; with OVCAR-5 ovarian it was 2.55 µM; in the test on RPMI-8226 leukemia it was 21.6 µM. Further, the GI50 in the test with SF-539 CNS is 2.24 µM; in the test on SK-MEL-5 melanoma, 12.5 µM; with SK-OV-3 ovarian, 47.6 µM; in the test with SR leukemia, 25.1 µM. Moreover, the TGI with 786-0 renal is greater than 100 µM; in the test with CAKI-1 renal, greater than 100 µM; with HOP-62 NSCLC, greater than 100 µM; in the test on NCI/ADR-RES ovarian, greater than 100 µM; in the test on OVCAR-5 ovarian, greater than 100 µM; in the test on RPMI-8226 leukemia, 59.3 µM. Besides, the TGI was 6.91 µM in the test on SF-539 CNS, 43.3 µM with SK-MEL-5 melanoma, greater than 100 µM in the test on SK-OV-3 ovarian and greater than 100 µM with SR leukemia.
In the case of `O=C1c2cccc(Oc3ccccc3)c2C(=O)c2cccc(Oc3ccccc3)c21`, the GI50 with 786-0 renal is 27.5 µM; in the test on CAKI-1 renal, greater than 100 µM; in the test with HOP-62 NSCLC, 5.05 µM; in the test with NCI/ADR-RES ovarian, greater than 100 µM; with OVCAR-5 ovarian, greater than 100 µM; with RPMI-8226 leukemia it was greater than 100 µM. The GI50 in the test on SF-539 CNS was 41.5 µM; in the test on SK-MEL-5 melanoma, greater than 100 µM; in the test with SK-OV-3 ovarian it was 9.39 µM; in the test with SR leukemia it was 77.5 µM. In addition, the TGI with 786-0 renal, in the test on CAKI-1 renal, with HOP-62 NSCLC, with NCI/ADR-RES ovarian, in the test on OVCAR-5 ovarian and with RPMI-8226 leukemia was greater than 100 µM in each case. In addition, the TGI in the test with SF-539 CNS, in the test on SK-MEL-5 melanoma, in the test with SK-OV-3 ovarian and in the test with SR leukemia was greater than 100 µM throughout.
Consider `CCN(CC)CCCNc1ccc(C)c2sc3ccccc3c(=O)c12`, for which the GI50 in the test with 786-0 renal is 0.822 µM; with CAKI-1 renal, 1.29 µM; in the test on HOP-62 NSCLC it was 1.14 µM; in the test with NCI/ADR-RES ovarian, 1.4 µM; in the test on OVCAR-5 ovarian, 1.26 µM; in the test on RPMI-8226 leukemia it was 0.33 µM. The GI50 in the test on SF-539 CNS was 1.3 µM; in the test on SK-MEL-5 melanoma it was 0.187 µM; in the test with SK-OV-3 ovarian it was 1.51 µM; in the test with SR leukemia it was 0.268 µM. In addition, the TGI came to 2.18 µM in the test with 786-0 renal; 3.06 µM with CAKI-1 renal; 2.55 µM with HOP-62 NSCLC; 4.48 µM in the test on NCI/ADR-RES ovarian; 2.76 µM in the test on OVCAR-5 ovarian; 1.34 µM in the test on RPMI-8226 leukemia. The TGI in the test with SF-539 CNS stood at 2.81 µM; in the test on SK-MEL-5 melanoma, 0.343 µM; in the test with SK-OV-3 ovarian, 4.82 µM; in the test on SR leukemia, 0.988 µM.
On to `Cc1cccc(NC(=O)c2sc3nc4c(cc3c2N)C(=O)CCC4)c1`, for which the GI50 is 0.527 µM with 786-0 renal; 0.368 µM in the test on CAKI-1 renal; 0.425 µM in the test on HOP-62 NSCLC; 0.259 µM in the test with NCI/ADR-RES ovarian; 0.594 µM in the test on RPMI-8226 leukemia; 0.199 µM in the test with SF-539 CNS. Also, the GI50 with SK-MEL-5 melanoma is 0.115 µM; in the test on SK-OV-3 ovarian, 0.317 µM; in the test on SR leukemia it was 0.445 µM. For the same compound, the TGI with 786-0 renal is greater than 41 µM; in the test on CAKI-1 renal, greater than 100 µM; in the test on HOP-62 NSCLC, greater than 43.7 µM; in the test on NCI/ADR-RES ovarian, greater than 49.8 µM; in the test with OVCAR-5 ovarian it was greater than 57.7 µM; in the test with RPMI-8226 leukemia, greater than 100 µM. The TGI in the test with SF-539 CNS is 0.616 µM; in the test on SK-MEL-5 melanoma, greater than 57.4 µM; in the test with SK-OV-3 ovarian, greater than 100 µM; in the test on SR leukemia, greater than 100 µM.
In the case of `c1ccc(-c2[nH]ncc2-c2ccnc(-c3ccc(OCCn4ccnc4)cc3)c2)nc1`, the GI50 in the test with 786-0 renal is greater than 25 µM; in the test with CAKI-1 renal it was greater than 25 µM; with HOP-62 NSCLC it was greater than 25 µM; in the test with NCI/ADR-RES ovarian, greater than 25 µM; with OVCAR-5 ovarian, greater than 25 µM; in the test with RPMI-8226 leukemia, greater than 20.6 µM. Further, the GI50 in the test with SF-539 CNS was greater than 25 µM; with SK-MEL-5 melanoma, 8.1 µM; in the test with SK-OV-3 ovarian, greater than 25 µM; with SR leukemia it was greater than 25 µM. The TGI with 786-0 renal, in the test with CAKI-1 renal, with HOP-62 NSCLC, in the test with NCI/ADR-RES ovarian, in the test with OVCAR-5 ovarian and in the test with RPMI-8226 leukemia was greater than 25 µM throughout. For the same compound, the TGI in the test with SF-539 CNS, in the test with SK-MEL-5 melanoma, in the test on SK-OV-3 ovarian and with SR leukemia was greater than 25 µM each time.
Regarding `Cn1c([N+](=O)[O-])cnc1C=C1C(=O)c2ccccc2C1=O`, the GI50 was 5.18 µM in the test with 786-0 renal; 3.56 µM in the test with CAKI-1 renal; 10.7 µM in the test with HOP-62 NSCLC; 5.34 µM with NCI/ADR-RES ovarian; 6 µM in the test on OVCAR-5 ovarian; 3.36 µM in the test with RPMI-8226 leukemia. Moreover, the GI50 with SF-539 CNS is 2.6 µM; with SK-MEL-5 melanoma, 8.67 µM; with SK-OV-3 ovarian, 6.32 µM; in the test on SR leukemia, 1.87 µM. Besides, the TGI with 786-0 renal came to 28.3 µM; in the test with CAKI-1 renal, 14.2 µM; in the test with HOP-62 NSCLC, 29.5 µM; in the test on NCI/ADR-RES ovarian, 83.9 µM; with OVCAR-5 ovarian, 18.7 µM; in the test with RPMI-8226 leukemia, 13 µM. The TGI with SF-539 CNS amounted to 7.51 µM; with SK-MEL-5 melanoma, 21.9 µM; in the test with SK-OV-3 ovarian, 29.4 µM; with SR leukemia it was 10.5 µM.
As for `Cc1nn(-c2ccc(Cl)cc2)c2ncnc(N/N=C/c3ccccc3O)c12`, the GI50 in the test with 786-0 renal is 0.768 µM and 0.509 µM; in the test on CAKI-1 renal, 0.331 µM and 0.625 µM; in the test with HOP-62 NSCLC it was 0.538 µM and 0.322 µM; with NCI/ADR-RES ovarian, 0.372 µM and 0.356 µM; with OVCAR-5 ovarian, 4.16 µM and 2.34 µM; in the test with RPMI-8226 leukemia, 0.699 µM and 0.714 µM. In addition, the GI50 in the test with SF-539 CNS was 0.484 µM and 0.455 µM; in the test on SK-MEL-5 melanoma, 0.728 µM and 0.509 µM; with SK-OV-3 ovarian it was 0.615 µM and 0.427 µM; in the test on SR leukemia, 0.445 µM and 0.206 µM. For the same compound, the TGI in the test with 786-0 renal was 7.55 µM and 5.84 µM; in the test with CAKI-1 renal, 3.03 µM and 8.82 µM; in the test on HOP-62 NSCLC, 17.1 µM and 9.11 µM; with NCI/ADR-RES ovarian, 16.9 µM and 17.4 µM; in the test on OVCAR-5 ovarian, greater than 100 µM; with RPMI-8226 leukemia, greater than 100 µM. In addition, the TGI was 11.5 µM and 5.99 µM in the test with SF-539 CNS; 2.45 µM and 1.47 µM with SK-MEL-5 melanoma; 26.5 µM and 10.8 µM in the test with SK-OV-3 ovarian; 43.5 µM in the test with SR leukemia.
For `Cc1ccc2c(-c3ccnc(Nc4ccc5c(c4)OCCO5)n3)c(-c3ccc(C(F)(F)F)cc3)nn2n1`, the GI50 in the test with 786-0 renal is greater than 21.3 µM; with CAKI-1 renal it was 1.42 µM; in the test on HOP-62 NSCLC it was 24.8 µM; with NCI/ADR-RES ovarian, 5.55 µM; in the test on OVCAR-5 ovarian, 6 µM; with RPMI-8226 leukemia, 2.13 µM. Besides, the GI50 in the test on SF-539 CNS is greater than 18.7 µM; in the test on SK-MEL-5 melanoma, 2.04 µM; in the test on SK-OV-3 ovarian, 3.8 µM; with SR leukemia, 17 µM. Further, the TGI was greater than 25 µM with 786-0 renal; greater than 25 µM in the test with CAKI-1 renal; greater than 25 µM in the test with HOP-62 NSCLC; greater than 25 µM with NCI/ADR-RES ovarian; greater than 25 µM in the test with OVCAR-5 ovarian; 13.5 µM in the test with RPMI-8226 leukemia. The TGI in the test with SF-539 CNS is greater than 25 µM; in the test on SK-MEL-5 melanoma, 7.42 µM; in the test with SK-OV-3 ovarian it was greater than 25 µM; with SR leukemia it was greater than 25 µM.
As to `CNC(=O)c1ncccc1Nc1nc(Nc2cc3c(cc2OC)CCCN3C(=O)CN(C)C)nc2[nH]ccc12`, the GI50 was 3.23 µM in the test with 786-0 renal; 2.74 µM in the test on CAKI-1 renal; 1.17 µM in the test with HOP-62 NSCLC; 0.724 µM in the test with NCI/ADR-RES ovarian; 0.325 µM in the test with OVCAR-5 ovarian; 0.842 µM in the test with RPMI-8226 leukemia. Further, the GI50 was 1.57 µM in the test on SF-539 CNS, 0.618 µM in the test on SK-MEL-5 melanoma, 1.67 µM in the test with SK-OV-3 ovarian and 0.104 µM in the test on SR leukemia. The TGI in the test with 786-0 renal was 7.02 µM; in the test on CAKI-1 renal, 7.22 µM; with HOP-62 NSCLC it was 4.73 µM; in the test with NCI/ADR-RES ovarian, 2.74 µM; with OVCAR-5 ovarian, 4.18 µM; with RPMI-8226 leukemia it was 3.89 µM. The TGI was found to be 5.13 µM in the test on SF-539 CNS, 3.37 µM in the test with SK-MEL-5 melanoma, 5.86 µM in the test on SK-OV-3 ovarian and 2.96 µM in the test on SR leukemia.
In the case of `Cc1cc(O)c2c(c1)C(=O)C=CC2=O`, the GI50 in the test with 786-0 renal was 5.8 µM and 2.59 µM; with CAKI-1 renal, 5.57 µM and 2.21 µM; in the test with RPMI-8226 leukemia, 3.29 µM and 0.39 µM; with SK-MEL-5 melanoma, 7.53 µM and 2.27 µM; with SR leukemia it was 1.14 µM and 0.33 µM. For the same compound, the TGI is 12.9 µM and > 21.6 µM in the test with 786-0 renal; 13 µM and 6.47 µM in the test on CAKI-1 renal; 44.7 µM and 34.2 µM in the test on HOP-62 NSCLC; 37 µM and 47.2 µM in the test with NCI/ADR-RES ovarian; 43.1 µM and 34.4 µM with OVCAR-5 ovarian; 17.9 µM and 3.44 µM in the test with RPMI-8226 leukemia. The TGI with SF-539 CNS is 31.4 µM and 30.8 µM; in the test with SK-MEL-5 melanoma it was 22.4 µM and 6.77 µM; in the test with SK-OV-3 ovarian it was greater than 84.2 µM.
